Laboratory results from patent US6914045B2, “Glycopeptide antibiotics” (Wyeth Holdings Corporation, priority 2001, dated 2005).
≈ marks a conversion by molar mass, not a printed value. Blank lines part the entries; values can stand above or below the compound they belong to.

Columns and labels:
Assay in all cases: in vitro antibacterial evaluation, MIC by broth dilution
Type in all cases: cell-based
Streptococcus sp. = details: broth dilution, 18 hours at 35° C.
Outline: (§1)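 Broth dilution per NCCLS standard M7-A2 in Muller-Hinton II […], with an inoculum of 5×10^5 CFU/mL and antibiotic spanning 64-0.06 μg/mL. The MIC is the lowest concentration that inhibits growth of the organism.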

Enterococcus sp. = details: broth dilution, 18 hours at 35° C.
Outline: as §1

Staphylococcus sp. = details: broth dilution, 18 hours at 35° C.; for MIC Staphylococcus aureus (ATCC 29213): strain ATCC 29213; for MIC Staphylococcus aureus (GC 1131): strain GC 1131; for MIC Staphylococcus aureus (GC 3051): strain GC 3051; for MIC Staphylococcus aureus (GC 3053): strain GC 3053; for MIC Staphylococcus aureus (GC 4541): strain GC 4541; for MIC Staphylococcus aureus (GC 4542): strain GC 4542; for MIC Staphylococcus aureus-SMITH (GC 4543): strain GC 4543; for MIC Staphylococcus aureus (GC 4544): strain GC 4544; for MIC Staphylococcus aureus (GC 4545): strain GC 4545; for MIC Staphylococcus haemolyticus (GC 4546): strain GC 4546; for MIC Coagulase Negative Staphylococcus (GC 4547): strain GC 4547; for MIC Coagulase Negative Staphylococcus (GC 4548): strain GC 4548; for MIC Coagulase Negative Staphylococcus (GC 4549): strain GC 4549; for MIC Coagulase Negative Staphylococcus (GC 4551): strain GC 4551
Outline: as §1

Escherichia coli = details: 18 hours at 35° C.
Outline: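 Broth dilution in Muller-Hinton II medium per NCCLS standard M7-A2, with an inoculum of 5×10^5 CFU/mL and antibiotic tested over 64-0.06 μg/mL. MIC was taken as the lowest concentration inhibiting visible growth.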

MIC Streptococcus pneumoniae (ATCC 6301) (Streptococcus sp.; strain ATCC 6301): >64 µg/mL
MIC Streptococcus pneumoniae (GC 1894) (Streptococcus sp.; strain GC 1894): 64 µg/mL (≈ 58.7 µM)
MIC Streptococcus pyogenes (GC 4563) (Streptococcus sp.; strain GC 4563): >64 µg/mL
MIC Streptococcus agalactiae (GC 4564) (Streptococcus sp.; strain GC 4564): >64 µg/mL
MIC Streptococcus pneumoniae (GC 4565) (Streptococcus sp.; strain GC 4565): >64 µg/mL
MIC Enterococcus faecalis (ATCC 29212) (Enterococcus sp.; strain ATCC 29212): >64 µg/mL
MIC Enterococcus faecalis (GC 2242) (Enterococcus sp.; strain GC 2242): >64 µg/mL
MIC Enterococcus faecium (GC 2243) (Enterococcus sp.; strain GC 2243): >64 µg/mL
MIC Enterococcus faecalis (GC 2691) (Enterococcus sp.; strain GC 2691): >64 µg/mL
MIC Enterococcus faecalis (GC 3059) (Enterococcus sp.; strain GC 3059): >64 µg/mL
MIC Enterococcus faecalis (GC 4552) (Enterococcus sp.; strain GC 4552): >64 µg/mL
MIC Enterococcus faecalis (GC 4553) (Enterococcus sp.; strain GC 4553): >64 µg/mL
MIC Enterococcus faecalis (GC 4554) (Enterococcus sp.; strain GC 4554): >64 µg/mL
MIC Enterococcus faecium (GC 4556) (Enterococcus sp.; strain GC 4556): 64 µg/mL (≈ 58.7 µM)
MIC Enterococcus faecium (GC 4557) (Enterococcus sp.; strain GC 4557): 64 µg/mL (≈ 58.7 µM)
MIC Enterococcus avium (GC 4558) (Enterococcus sp.; strain GC 4558): 64 µg/mL (≈ 58.7 µM)
MIC Enterococcus faecalis (GC 6189) (Enterococcus sp.; strain GC 6189): >64 µg/mL
MIC Staphylococcus aureus (ATCC 29213) (Staphylococcus sp.): >64 µg/mL
MIC Staphylococcus aureus (GC 1131) (Staphylococcus sp.): >64 µg/mL
MIC Staphylococcus aureus (GC 3051) (Staphylococcus sp.): >64 µg/mL
MIC Staphylococcus aureus (GC 3053) (Staphylococcus sp.): >64 µg/mL
MIC Staphylococcus aureus (GC 4541) (Staphylococcus sp.): >64 µg/mL
MIC Staphylococcus aureus (GC 4542) (Staphylococcus sp.): >64 µg/mL
MIC Staphylococcus aureus-SMITH (GC 4543) (Staphylococcus sp.): >64 µg/mL
MIC Staphylococcus aureus (GC 4544) (Staphylococcus sp.): >64 µg/mL
MIC Staphylococcus aureus (GC 4545) (Staphylococcus sp.): >64 µg/mL
MIC Coagulase Negative Staphylococcus (GC 4547) (Staphylococcus sp.): 64 µg/mL (≈ 58.7 µM)
MIC Coagulase Negative Staphylococcus (GC 4548) (Staphylococcus sp.): >64 µg/mL
MIC Coagulase Negative Staphylococcus (GC 4549) (Staphylococcus sp.): 32 µg/mL (≈ 29.4 µM)
MIC Coagulase Negative Staphylococcus (GC 4551) (Staphylococcus sp.): >64 µg/mL
MIC Coagulase Negative Staphylococcus (GC 6257) (Staphylococcus sp.; strain GC 6257): 64 µg/mL (≈ 58.7 µM)
MIC Escherichia coli (ATCC 25922) (Escherichia coli; strain ATCC 25922, broth dilution): 64 µg/mL (≈ 58.7 µM)
MIC Escherichia coli (GC 4559) (Escherichia coli; strain GC 4559, broth dilution): 32 µg/mL (≈ 29.4 µM)
MIC Escherichia coli (GC 4560) (Escherichia coli; strain GC 4560, broth dilution): 16 µg/mL (≈ 14.7 µM)
Compound: CC(c1ccccc1)C1NC(=O)CNC(=O)C(CO)NC(=O)C(C(O)C2CNC(=N)N2C2OC(CO)C(O)C(O)C2O)NC(=O)C(C(O)C2CNC(=N)N2)NC(=O)C(Cc2ccc(O)c(NC(=O)c3ccccc3)c2)NC1=O (stereo not drawn) [Example 17, Cyclo[glycyl-β-methylphenylalanyl-3-(benzamido)tyrosyl-3-(2-iminoimidazolidin-4-yl)seryl-3-(3-hexopyranosyl-2-iminoimidazolidin-4-yl)serylseryl]]
MIC Staphylococcus haemolyticus (GC 4546) (Staphylococcus sp.): >64 µg/mL

MIC Streptococcus agalactiae (GC 4564) (Streptococcus sp.): 0.5 µg/mL (≈ 0.334 µM)
MIC Streptococcus pneumoniae (ATCC 6301) (Streptococcus sp.): 0.5 µg/mL (≈ 0.334 µM)
MIC Streptococcus pneumoniae (GC 1894) (Streptococcus sp.): <0.12 µg/mL
MIC Streptococcus pneumoniae (GC 4565) (Streptococcus sp.): 1 µg/mL (≈ 0.669 µM)
MIC Streptococcus pyogenes (GC 4563) (Streptococcus sp.): 0.5 µg/mL (≈ 0.334 µM)
MIC Streptococcus pneumoniae (ATCC 6301) (Streptococcus sp.; inoculum 5×10^5 CFU/mL, strain ATCC 6301): 0.5 µg/mL (≈ 0.334 µM)
MIC Streptococcus pneumoniae (GC 1894) (Streptococcus sp.; inoculum 5×10^5 CFU/mL, strain GC 1894): <0.12 µg/mL
MIC Streptococcus pyogenes (GC 4563) (Streptococcus sp.; inoculum 5×10^5 CFU/mL, strain GC 4563): 0.5 µg/mL (≈ 0.334 µM)
MIC Streptococcus agalactiae (GC 4564) (Streptococcus sp.; inoculum 5×10^5 CFU/mL, strain GC 4564): 0.5 µg/mL (≈ 0.334 µM)
MIC Streptococcus pneumoniae (GC 4565) (Streptococcus sp.; inoculum 5×10^5 CFU/mL, strain GC 4565): 1 µg/mL (≈ 0.669 µM)
MIC Enterococcus avium (GC 4558) (Enterococcus sp.): 4 µg/mL (≈ 2.67 µM)
MIC Enterococcus faecalis (ATCC 29212) (Enterococcus sp.): 8 µg/mL (≈ 5.35 µM)
MIC Enterococcus faecalis (GC 2242) (Enterococcus sp.): 8 µg/mL (≈ 5.35 µM)
MIC Enterococcus faecalis (GC 2691) (Enterococcus sp.): 16 µg/mL (≈ 10.7 µM)
MIC Enterococcus faecalis (GC 3059) (Enterococcus sp.): 16 µg/mL (≈ 10.7 µM)
MIC Enterococcus faecalis (GC 4552) (Enterococcus sp.): 8 µg/mL (≈ 5.35 µM)
MIC Enterococcus faecalis (GC 4553) (Enterococcus sp.): 4 µg/mL (≈ 2.67 µM)
MIC Enterococcus faecalis (GC 4554) (Enterococcus sp.): 16 µg/mL (≈ 10.7 µM)
MIC Enterococcus faecalis (GC 6189) (Enterococcus sp.): 16 µg/mL (≈ 10.7 µM)
MIC Enterococcus faecium (GC 2243) (Enterococcus sp.): 4 µg/mL (≈ 2.67 µM)
MIC Enterococcus faecium (GC 4556) (Enterococcus sp.): 8 µg/mL (≈ 5.35 µM)
MIC Enterococcus faecium (GC 4557) (Enterococcus sp.): 1 µg/mL (≈ 0.669 µM)
MIC Enterococcus faecalis (ATCC 29212) (Enterococcus sp.; inoculum 5×10^5 CFU/mL, strain ATCC 29212): 8 µg/mL (≈ 5.35 µM)
MIC Enterococcus faecalis (GC 2242) (Enterococcus sp.; inoculum 5×10^5 CFU/mL, strain GC 2242): 8 µg/mL (≈ 5.35 µM)
MIC Enterococcus faecium (GC 2243) (Enterococcus sp.; inoculum 5×10^5 CFU/mL, strain GC 2243): 4 µg/mL (≈ 2.67 µM)
MIC Enterococcus faecalis (GC 2691) (Enterococcus sp.; inoculum 5×10^5 CFU/mL, strain GC 2691): 16 µg/mL (≈ 10.7 µM)
MIC Enterococcus faecalis (GC 3059) (Enterococcus sp.; inoculum 5×10^5 CFU/mL, strain GC 3059): 16 µg/mL (≈ 10.7 µM)
MIC Enterococcus faecalis (GC 4552) (Enterococcus sp.; inoculum 5×10^5 CFU/mL, strain GC 4552): 8 µg/mL (≈ 5.35 µM)
MIC Enterococcus faecalis (GC 4553) (Enterococcus sp.; inoculum 5×10^5 CFU/mL, strain GC 4553): 4 µg/mL (≈ 2.67 µM)
MIC Enterococcus faecalis (GC 4554) (Enterococcus sp.; inoculum 5×10^5 CFU/mL, strain GC 4554): 16 µg/mL (≈ 10.7 µM)
MIC Enterococcus faecium (GC 4556) (Enterococcus sp.; inoculum 5×10^5 CFU/mL, strain GC 4556): 8 µg/mL (≈ 5.35 µM)
MIC Enterococcus faecium (GC 4557) (Enterococcus sp.; inoculum 5×10^5 CFU/mL, strain GC 4557): 1 µg/mL (≈ 0.669 µM)
MIC Enterococcus avium (GC 4558) (Enterococcus sp.; inoculum 5×10^5 CFU/mL, strain GC 4558): 4 µg/mL (≈ 2.67 µM)
MIC Enterococcus faecalis (GC 6189) (Enterococcus sp.; inoculum 5×10^5 CFU/mL, strain GC 6189): 16 µg/mL (≈ 10.7 µM)
MIC Staphylococcus aureus (ATCC 29213) (Staphylococcus sp.): 4 µg/mL (≈ 2.67 µM)
MIC Staphylococcus aureus (GC 1131) (Staphylococcus sp.): 8 µg/mL (≈ 5.35 µM)
MIC Staphylococcus aureus (GC 3051) (Staphylococcus sp.): 4 µg/mL (≈ 2.67 µM)
MIC Staphylococcus aureus (GC 3053) (Staphylococcus sp.): 8 µg/mL (≈ 5.35 µM)
MIC Staphylococcus aureus (GC 4541) (Staphylococcus sp.): 4 µg/mL (≈ 2.67 µM)
MIC Staphylococcus aureus (GC 4542) (Staphylococcus sp.): 8 µg/mL (≈ 5.35 µM)
MIC Staphylococcus aureus-SMITH (GC 4543) (Staphylococcus sp.): 4 µg/mL (≈ 2.67 µM)
MIC Staphylococcus aureus (GC 4544) (Staphylococcus sp.): 8 µg/mL (≈ 5.35 µM)
MIC Staphylococcus aureus (GC 4545) (Staphylococcus sp.): 4 µg/mL (≈ 2.67 µM)
MIC Coagulase Negative Staphylococcus (GC 4547) (Staphylococcus sp.): 4 µg/mL (≈ 2.67 µM)
MIC Coagulase Negative Staphylococcus (GC 4548) (Staphylococcus sp.): 2 µg/mL (≈ 1.34 µM)
MIC Coagulase Negative Staphylococcus (GC 4549) (Staphylococcus sp.): 2 µg/mL (≈ 1.34 µM)
MIC Coagulase Negative Staphylococcus (GC 4551) (Staphylococcus sp.): 4 µg/mL (≈ 2.67 µM)
MIC Escherichia coli (ATCC 25922) (Escherichia coli): 128 µg/mL (≈ 85.6 µM)
MIC Escherichia coli (GC 4559) (Escherichia coli): 128 µg/mL (≈ 85.6 µM)
MIC Escherichia coli (GC 4560) (Escherichia coli): 4 µg/mL (≈ 2.67 µM)
Compound: CC(C)=CCN1CC(C(O)C2NC(=O)C(C(O)C3CNC(=N)N3)NC(=O)C(Cc3ccc(OC4OC(CO)C(OC5OC6COC7(OC6C(O)C5O)C5CC6CC(C5)CC7C6)C(O)C4O)cc3)NC(=O)C(C(C)c3ccccc3)NC(=O)CNC(=O)C(CO)NC2=O)N(C2OC(CO)C(O)C(O)C2O)C1=N (centres unmarked) [Example 225]
MIC Staphylococcus haemolyticus (GC 4546) (Staphylococcus sp.): 4 µg/mL (≈ 2.67 µM)
